This note sets out measurements from US8551951B2, “Pharmaceutical preparations and methods for inhibiting tumors” (Aenorasis SA Pharmaceuticals and Medical Devices, priority 2000, dated 2013).

The test system of assay [1] is PC-3 human prostate tumor. As to the kind of experiment: PC-3 human prostate tumor in nude mice, subcutaneous treatment for 14 days (Examples 10 and 11). In kind it is in vivo, Nude mouse. Particulars: 10 μg/kg body weight per day s.c. The protocol:
PC-3 human prostate tumor was obtained from ATCC (ATCC 1435). PC-3 cells were grown in RPMI media containing 10% (v/v) of fetal calf serum and were harvested in the logarithmic phase of growth by trypsinization. Cells were centrifuged at 1200 rotation per minute (rpm) and washed three timed with Hanks balanced salt solution (HBSS). Following washing, cells were counted and adjusted to a concentration of 1×10^7 cells/ml in HBSS. A 0.1 ml volume of tumor cell inoculum containing 1×10^6 cells was administered subcutaneously into the two opposite flank region of each Nude mouse (Nu/Nu, BALE/c background). Tumor growth was monitored for approximately 18 days. Once tumor growth has been established (volume of tumor reached a volume of 50 mm^3) treatment with rHuPSP94 (SEQ ID NO: 2) was initiated and was performed once a day for 14 days by the subcutaneous route. Based on the assigned treatment groups illustrated in table 4.
PC-3 human prostate tumor (ATCC 1435) obtained from ATCC was implanted bilaterally into nude mice and tumor growth was monitored for approximately 18 days. PC-3 cells were injected once subcutaneously into each flank of the mice. Once tumor growth has been established (i.e., volume of tumor reached 0.25 to 0.50 cm^3) the treatment with decapeptide (SEQ ID NO: 3), native PSP94 (SEQ ID NO: 1) and control scrambled polypeptide PB111 was initiated and was performed once a day for 14 days by the subcutaneous route based on the treatment groups (randomly assigned) illustrated in table 5.

Assay [2] has as its system PC-3 cells. As to the kind of experiment: clonogenicity assay (colony formation). In kind it is cell-based, human. As for the experimental part:
The synthetic decapeptide (SEQ ID NO: 3) has been shown herein to mimic the biological activity of native PSP94 (nPSP94) (SEQ ID NO: 1) and therefore its effect on the PC-3 cells was studied in clonogenicity assay (colony formation). Cells were seeded in Costar 96 well cell culture flat bottom plates in RPMI supplemented media containing 50 μg/ml of bovine serum albumin (BSA) and 0.1 μM FeSO4. Clonogenicity was evaluated for PC-3 cells grown in the presence of various concentration of the decapeptide after 9 days of culture (FIG. 4a). A parallel experiment was performed with various concentration of nPSP94 using the same experimental conditions (FIG. 4b). Other experiments evaluating clonogenicity was performed with the decapeptide (FIG. 5a) or nPSP94 (FIG. 5b) after 21 days of culture as well as after 10 days of culture (FIG. 6a: Decapeptide and FIG. 6b: nPSP94).

Assay [3] relates to human prostate cancer cells PC-3. As to the kind of experiment: MTS assay, growth inhibitory effect on PC-3 cells. It is filed as cell-based. Particulars: 72 hours. The text has this:
Cell proliferation was monitored on PC-3 cells using the MTS/PMS (phenazine methosulfate) kit (Promega), which primarily measures mitochondrial activity of live cells. The basic principle of this method involves the fact that the mitochondrial enzymes of the live cells metabolize the MTS/PMS dyes forming a brown colored precipitate which can be measured as optical density (OD) by absorption at 490 nm in a spectrophotometer. Therefore, the OD values are proportional to the number of living cells. In addition, monitoring of cell morphology was also performed. Cell morphology would be indicative of their health status. For example, viable cells would appear adherent and spread out whereas dead cells would be in suspension in the media and would appear granular and round.
PC-3 cells (ATCC, Lot AT06) used in these experiments were at a passage number lower or equal to 70 (n≧70). Cells were seeded in Costar 96 well cell culture flat bottom plates in RPMI supplemented media containing 50 μg/ml of bovine serum albumin (BSA) and 0.1 μM FeSO4. Peptide was diluted in the same media. Cells were continuously exposed to the polypeptides of the present invention for 72 hours without changing media. Native PSP94 or rHuPSP94 concentrated two fold were directly added to wells and diluted to 1× in order to minimize cell manipulation and avoid detachment.
Native PSP94, rHuPSP94, polypeptide 22-36 and PB111 polypeptide (scrambled polypeptide) were also included in this experiment as controls. Cell proliferation assay was performed on either PC-3 cells or normal fibroblasts (used here as control) using the MTS/PMS kit (Promega). Four thousand cells (FIGS. 9 and 10) or three thousand (FIG. 11) cells were seeded in Costar 96 well cell culture flat bottom plates in RPMI supplemented media containing 50 μg/ml of bovine serum albumin (BSA) and 0.1 μM FeSO4. In addition, monitoring of cell morphology was also performed.
This assay measures the mitochondrial activity of the live cells. The basic principle of this method involves the fact that the mitochondrial enzymes of the live cells metabolize the MTS/PMS dyes forming a brown colored precipitate which can be measured as optical density (OD) by absorption at 490 nm in a spectrophotometer. Therefore, the OD values are proportional to the number of living cells.
In addition, a visual observation of the cells was also done to check the cell morphology, which could also be indicative of cell growth. The following conditions for MTS assay were used: PC-3 (ATCC, Lot AT06), passage number n≧70, cell line adapted to grow in serum-free OPTI-MEM and in RPMI supplemented with BSA (50 μg/ml) and Ferrous Sulfate (0.1 μM), continuous exposure for up to 72 hours without changing media (i.e., adding PCK3145 at 2× concentration directly to wells and diluting it 1:2 to 1× to minimize cell manipulation and avoid detachment).
Background: Formazan colour is commonly taken as a measure of viable cells.

Assay [4] has as its system PC-3 cells. As to the kind of experiment: DNA fragmentation assay (DNA ladder, apoptosis). It is filed as cell-based, human. Particulars: various concentrations, 72 hours. As for the experimental part:
Cell apoptosis result in DNA fragmentation can be evaluated by the presence of a DNA ladder visualized when DNA is run on a 1.2% agarose gel. DNA ladder assay (apoptosis assay) was performed following exposure of PC-3 to various concentrations of the polypeptides for 72 hours. The polypeptides that were used in this particular experiment are polypeptide 7-21 (SEQ ID NO: 4), polypeptide PCK3145 (SEQ ID NO: 5) and polypeptide 76-94 (SEQ ID NO: 6). […] This effect was especially evident following treatment with PCK3145 (SEQ ID NO: 5), which is illustrated by FIG. 7. Lane 1 of the gel illustrated in FIG. 7 represents a lambda HindIII digest standard.
Apoptosis of PC-3 cells, following a 72 hours exposure to PCK3145 at 500 μg/ml concentration, was evaluated in supplemented media by DNA fragmentation assay. Doxorubicin was used as a reference positive control. Untreated cells and PCK3145-treated cells were harvested and the DNA was isolated. Isolated DNA was run on a 1.2% agarose gel containing Ethidium Bromide (EtBr). […] Lane 1 of the gel illustrated in FIG. 25 represents the DNA marker (100 base pair DNA ladder). Lane 2 of the gel illustrated in FIG. 25 represents a control of untreated PC-3 cells.

For assay [5], the system named is PC-3 cells. As to the kind of experiment: Apoptosis assay by ELISA plus. Particulars: 22.5 μM to 90 μM, 72 hours. It is filed as cell-based, human. As for the experimental part:
The three polypeptides (SEQ ID NO: 4, SEQ ID NO: 5 and SEQ ID NO 6) and native PSP94 used here as a positive control were tested in ELISA plus assay to measure cell death through apoptosis. Briefly, the ELISA plus assay is a sandwich enzyme immunoassay able to measure mono- and oligonucleosomes present in the cytoplasmic fraction of cell lysate using two antibodies, one directed against DNA and the other directed against histones. The apoptotic cell death is characterized by activation of endogenous endonucleases (e.g., calcium- and magnesium-dependant), which cleave double-stranded DNA at the most accessible internucleosomal linker region, generating mono- and oligonucleosomes. The enrichment of mono- and oligonucleosomes in the cytoplasm of the apoptotic cells is due to the fact that DNA degradation occurs several hours before plasma membrane breakdown.
Four thousand cells were seeded in Costar 96 well cell culture flat bottom plates in RPMI supplemented media containing 50 μg/ml of bovine serum albumin (BSA) and 0.1 μM FeSO4. The PC-3 cells were treated with various concentrations (22.5 μM to 90 μM) of polypeptides for 72 hours. Apoptosis assay was done as per manufacturer's instructions using the ApopTag kit (Boeringher Mannheim).
(ELISA stands for enzyme-linked immunosorbent assay.)

Regarding “decapeptide: synthetic decapeptide as set forth in SEQ ID NO: 3, mimics the biological activity of native PSP94 (YTCSVSEPGI; decapeptide)”, the “tumor growth (tumor volume)” value in assay [1] is “significant (p<0.05) tumor growth reduction”. Also, the “decrease in colony number” value was 40% with PC-3 cells [2] (1 μg/ml) and “up to 60%” with PC-3 cells [2] (10 μg/ml).
In the case of “polypeptide 76-94: PSP94 derived synthetic polypeptide from the carboxy terminus end, SEQ ID NO: 6 (IVVEKKDPKKTCSVSEWII; Polypeptide 76-94)”, the “growth inhibition of PC-3 cells (FIG. 10)” value in assay [3] is “significant growth inhibition”. Also, in the assay on PC-3 cells [4], the DNA laddering effect entry is on record as “induced a DNA laddering effect characteristic of apoptosis”. The “apoptotic cell death effect” value in the assay with PC-3 cells [5] is recorded as “dose dependent increase in the apoptotic cell death effect”.
